Assay results taken from patent publication US20090062243A1, “Lupane-Type Triterpenoids Modified at 30-Position and Analogues Thereof” (ADVANCED LIFE SCIENCES, INC., priority 2007, published 2009).

Tests used:
Assay type in all cases: cell-based
SK-MEL-2 (melanoma) = assay: MTS cell viability assay, SK-MEL-2
Method: (§1) Cells were plated, the evening before treatment, for each treatment on 96-well plates (1×10^4 cells/well) in 100 μL volume per well. Analog solutions were prepared by diluting each test compound in DSMO (10 mM) with the appropriate cell growth media for each individual cell line, or in “Universal Media” if several cell lines were to be assayed in parallel, immediately prior to cell treatment. Universal Media consisted of 5 mL sodium pyruvate (100× liquid stock, MediaTech), 5 mL glucose (100×, 45% liquid stock, MediaTech), 5 mL Penicillin/Streptomycin (100× liquid stock, MediaTech), 10 mL sodium bicarbonate (50× liquid stock, MediaTech), 25 mL Fetal Calf Serum, 1.25 mL insulin (4 mg/mL, Gibco) and […] RPMI media with 2 mM L-glutamine for a total volume of 500 mL.
(§2) Cells were treated by aspirating plating media from each well and adding 80 μL of betulinic acid (control) or each analog solution in serial dilutions to the adherent cells. All treatments were performed in triplicate. Growth media (80 μL) was added to 3 blank wells (no cells) to measure background from the growth media. Growth media alone (no DMSO or test compound) was added to 3 wells containing cells to measure the baseline MTS activity. Vehicle (DMSO) control in serial dilutions, added to cells, was also included to monitor basal toxicity from DMSO. Cells were incubated at 37° C. for 72 h, or 120 h for the OVCAR cell lines. MTS reagent (per 96-well plate) were prepared by combining 2 mL of MTS working solution (Cell Titer AQueous Non-Radioactive Cell Proliferation Assay, Promega, cat#G1112), 100 μL of 0.92 mg/mL phenazine methosulfate/Dulbecco's PBS and 2.1 mL growth media. MTS reagent (40 μL) were added to each well and incubated at 37° C. for 1.5 to 4 h. Plates were gently shaken by hand until solution in each well appeared homogenous. Absorbances at 490 nm were measured on a Wallac Victor II plate reader at multiple time points following the addition of MTS reagent for each plate. Triplicate absorbance (490 nm) measurements were averaged following background (no cell) subtraction for each drug concentration. Percent Cell Viability was calculated for each drug concentration using the following equation:
(§3) {[Absorbance(analog treated)]/[Absorbance(DMSO treated)]}×100%
(§4) Cytotoxicity dose response for the triterpenoid derivatives synthesized in SK-MEL-2 (melanoma), A-375 (melanoma), Daoy (glioblastoma), LN-229 (glioblastoma), OVCAR-3 (ovarian carcinoma), HT-29 (colon carcinoma), MCF-7 (breast carcinoma) cell lines using the standard MTS assay is summarized in Table 1. In Table 1, compounds 22a-d and compounds 23a-c refer to structures 22 and 23 in Scheme 5, respectively. Compounds 24aa-an and 24ba-bq refer to structure 24 in Scheme 6. Compounds 26a-e refer to structure 26 in Scheme 6. Compounds 36a-c refer to structure 36 in Scheme 10.

HT-29 (colon carcinoma) = assay: MTS cell viability assay, HT-29
Method: as §1, §2, §3, §4

LN-229 (glioblastoma) = assay: MTS cell viability assay, LN-229
Method: as §1, §2, §3, §4

A-375 (melanoma) = assay: MTS cell viability assay, A-375
Method: as §1, §2, §3, §4

Daoy = assay: MTS cell viability assay, Daoy; settings: cells incubated 72 h
Method: as §1, §2, §3, §4

MCF-7 (breast carcinoma) = assay: MTS cell viability assay, MCF-7
Method: as §1, §2, §3, §4

[1] = Homo sapiens, SK-MEL-2, cells incubated 72 h
[2] = Homo sapiens, HT-29, cells incubated 72 h
[3] = Homo sapiens, LN-229, cells incubated 72 h
[4] = Homo sapiens, A-375, cells incubated 72 h
[5] = Homo sapiens, MCF7, cells incubated 72 h

In the case of `C=C(CNCCc1ccc(O)cc1)[C@@H]1CC[C@]2(COC3CCCCO3)CC[C@]3(C)[C@H](CC[C@@H]4[C@@]5(C)CCC(=O)C(C)(C)[C@@H]5CC[C@]43C)[C@@H]12` (some centres unmarked) [Compound 22c], the IC50 (SK-MEL-2 (melanoma); [1]) was 7 µM, the IC50 (HT-29 (colon carcinoma); [2]) was 4 µM and the IC50 (LN-229 (glioblastoma); [3]) was 8 µM. For the same compound, the IC50 (A-375 (melanoma); [4]) was 6 µM, the IC50 (Daoy; Homo sapiens, Daoy) was 13 µM and the IC50 (MCF-7 (breast carcinoma); [5]) was 6 µM.
`C=C(CNCCO)[C@@H]1CC[C@]2(COC3CCCCO3)CC[C@]3(C)[C@H](CC[C@@H]4[C@@]5(C)CCC(O)C(C)(C)[C@@H]5CC[C@]43C)[C@@H]12` (some centres unmarked) [Compound 23a] was tested, and the IC50 (SK-MEL-2 (melanoma); [1]) was 16 µM and the IC50 (Daoy; Homo sapiens, Daoy) was 54 µM.
`C=C(CNCCO)[C@@H]1CC[C@]2(CO)CC[C@]3(C)[C@H](CC[C@@H]4[C@@]5(C)CCC(O)C(C)(C)[C@@H]5CC[C@]43C)[C@@H]12` (some centres unmarked) [Compound 23b] was tested, and the IC50 (SK-MEL-2 (melanoma); [1]) was 15 µM and the IC50 (Daoy; Homo sapiens, Daoy) was 35 µM.
For `C=C(CO)[C@@H]1CC[C@]2(COC3CCCCO3)CC[C@]3(C)[C@H](CC[C@@H]4[C@@]5(C)CCC(NC6CCC(O)CC6)C(C)(C)[C@@H]5CC[C@]43C)[C@@H]12` (some centres unmarked) [Compound 24ak], the IC50 (SK-MEL-2 (melanoma); cells incubated 72 h) was 38 µM and the IC50 (Daoy) was 38 µM.
In the case of `C=C(CNCCO)[C@@H]1CC[C@]2(COC3CCCCO3)CC[C@]3(C)[C@H](CC[C@@H]4[C@@]5(C)CCC(N)C(C)(C)[C@@H]5CC[C@]43C)[C@@H]12` (some centres unmarked) [Compound 24ba], the IC50 (SK-MEL-2 (melanoma); [1]) was 5 µM, the IC50 (HT-29 (colon carcinoma); [2]) was 2 µM and the IC50 (LN-229 (glioblastoma); [3]) was 15 µM. For the same compound, the IC50 (A-375 (melanoma); [4]) was 3 µM, the IC50 (Daoy; Homo sapiens, Daoy) was 5 µM and the IC50 (MCF-7 (breast carcinoma); [5]) was 3 µM.
For `C=C(CNCCO)[C@@H]1CC[C@]2(CO)CC[C@]3(C)[C@H](CC[C@@H]4[C@@]5(C)CCC(N)C(C)(C)[C@@H]5CC[C@]43C)[C@@H]12` (some centres unmarked) [Compound 24bb], the IC50 (SK-MEL-2 (melanoma); [1]) was 6 µM, the IC50 (HT-29 (colon carcinoma); [2]) was less than 2 µM and the IC50 (LN-229 (glioblastoma); [3]) was 12 µM. The IC50 (A-375 (melanoma); [4]) was 5 µM, the IC50 (Daoy; Homo sapiens, Daoy) was 5 µM and the IC50 (MCF-7 (breast carcinoma); [5]) was 2 µM.
Work on `C=C(CNCCO)[C@@H]1CC[C@]2(CO)CC[C@]3(C)[C@H](CC[C@@H]4[C@@]5(C)CCC(NCCOC)C(C)(C)[C@@H]5CC[C@]43C)[C@@H]12` (some centres unmarked) [Compound 24bc] yielded an IC50 (SK-MEL-2 (melanoma); cells incubated 72 h) of 8 µM, an IC50 (HT-29 (colon carcinoma); cells incubated 72 h) of 2 µM and an IC50 (LN-229 (glioblastoma); cells incubated 72 h) of 28 µM. The IC50 (A-375 (melanoma); cells incubated 72 h) was 4 µM, the IC50 (Daoy) was 5 µM and the IC50 (MCF-7 (breast carcinoma); cells incubated 72 h) was 11 µM.
`C=C(CNCCO)[C@@H]1CC[C@]2(COC3CCCCO3)CC[C@]3(C)[C@H](CC[C@@H]4[C@@]5(C)CCC(NCC(=O)OC)C(C)(C)[C@@H]5CC[C@]43C)[C@@H]12` (some centres unmarked) [Compound 24bd] was tested, and the IC50 (SK-MEL-2 (melanoma); cells incubated 72 h) was 16 µM and the IC50 (Daoy) was 16 µM.
For `C=C(CNCCO)[C@@H]1CC[C@]2(COC3CCCCO3)CC[C@]3(C)[C@H](CC[C@@H]4[C@@]5(C)CCC(NCCc6ccc(O)cc6)C(C)(C)[C@@H]5CC[C@]43C)[C@@H]12` (some centres unmarked) [Compound 24be], the IC50 (SK-MEL-2 (melanoma); cells incubated 72 h) was 2 µM, the IC50 (HT-29 (colon carcinoma); cells incubated 72 h) was less than 2 µM and the IC50 (LN-229 (glioblastoma); cells incubated 72 h) was 18 µM. It also gave an IC50 (A-375 (melanoma); cells incubated 72 h) of less than 2 µM, an IC50 (Daoy) of 0.5 µM and an IC50 (MCF-7 (breast carcinoma); cells incubated 72 h) of 5 µM.
With `C=C(CNCCO)[C@@H]1CC[C@]2(CO)CC[C@]3(C)[C@H](CC[C@@H]4[C@@]5(C)CCC(NCCc6ccc(O)cc6)C(C)(C)[C@@H]5CC[C@]43C)[C@@H]12` (some centres unmarked) [Compound 24bf] the IC50 (SK-MEL-2 (melanoma); cells incubated 72 h) was 5 µM, the IC50 (HT-29 (colon carcinoma); cells incubated 72 h) was less than 2 µM and the IC50 (LN-229 (glioblastoma); cells incubated 72 h) was 14 µM. For the same compound, the IC50 (A-375 (melanoma); cells incubated 72 h) was 2 µM, the IC50 (Daoy) was 1 µM and the IC50 (MCF-7 (breast carcinoma); cells incubated 72 h) was 4 µM.
For `C=C(CNCCO)[C@@H]1CC[C@]2(COC3CCCCO3)CC[C@]3(C)[C@H](CC[C@@H]4[C@@]5(C)CCC(NCCO)C(C)(C)[C@@H]5CC[C@]43C)[C@@H]12` (some centres unmarked) [Compound 24bg], the IC50 (SK-MEL-2 (melanoma); cells incubated 72 h) was 5 µM, the IC50 (HT-29 (colon carcinoma); cells incubated 72 h) was 3 µM and the IC50 (LN-229 (glioblastoma); cells incubated 72 h) was 18 µM. It also gave an IC50 (A-375 (melanoma); cells incubated 72 h) of less than 2 µM, an IC50 (Daoy) of 5 µM and an IC50 (MCF-7 (breast carcinoma); cells incubated 72 h) of 4 µM.
With `C=C(CNCCO)[C@@H]1CC[C@]2(CO)CC[C@]3(C)[C@H](CC[C@@H]4[C@@]5(C)CCC(NCCO)C(C)(C)[C@@H]5CC[C@]43C)[C@@H]12` (some centres unmarked) [Compound 24bh] the IC50 (SK-MEL-2 (melanoma); cells incubated 72 h) was 7 µM, the IC50 (HT-29 (colon carcinoma); cells incubated 72 h) was 2 µM and the IC50 (LN-229 (glioblastoma); cells incubated 72 h) was 16 µM. It also gave an IC50 (A-375 (melanoma); cells incubated 72 h) of 6 µM, an IC50 (Daoy) of 13 µM and an IC50 (MCF-7 (breast carcinoma); cells incubated 72 h) of 6 µM.
With `C=C(CNCCO)[C@@H]1CC[C@]2(COC3CCCCO3)CC[C@]3(C)[C@H](CC[C@@H]4[C@@]5(C)CCC(NC6CCC(O)CC6)C(C)(C)[C@@H]5CC[C@]43C)[C@@H]12` (some centres unmarked) [Compound 24bi] the IC50 (SK-MEL-2 (melanoma); cells incubated 72 h) was 5 µM and the IC50 (Daoy) was 5 µM.
`C=C(CNCCc1ccc(O)cc1)[C@@H]1CC[C@]2(COC3CCCCO3)CC[C@]3(C)[C@H](CC[C@@H]4[C@@]5(C)CCC(N)C(C)(C)[C@@H]5CC[C@]43C)[C@@H]12` (some centres unmarked) [Compound 24bn] gave an IC50 (SK-MEL-2 (melanoma); [1]) of 5 µM and an IC50 (Daoy; Homo sapiens, Daoy) of 2 µM.
With `CC(CNCCO)[C@@H]1CC[C@]2(CO)CC[C@]3(C)[C@H](CC[C@@H]4[C@@]5(C)CCC(O)C(C)(C)[C@@H]5CC[C@]43C)[C@@H]12` (some centres unmarked) [Compound 36b] the IC50 (SK-MEL-2 (melanoma); [1]) was 16 µM and the IC50 (Daoy; Homo sapiens, Daoy) was 54 µM.
